A word on the IC50: it is the concentration that gives 50% inhibition. A lower IC50 goes with higher potency. One may read the Ki as the equilibrium dissociation constant of an inhibitor or competing ligand from its target. Low values mean higher affinity, high ones lower affinity.

Entries after “also recorded” stand apart in the source; their conditions may differ.

Format in all cases: biochemical
The target in assay [1] is T1, human pancreatic α-amylase (Homo sapiens, UniProt P04746).
T1 sequence (P04746 16-511): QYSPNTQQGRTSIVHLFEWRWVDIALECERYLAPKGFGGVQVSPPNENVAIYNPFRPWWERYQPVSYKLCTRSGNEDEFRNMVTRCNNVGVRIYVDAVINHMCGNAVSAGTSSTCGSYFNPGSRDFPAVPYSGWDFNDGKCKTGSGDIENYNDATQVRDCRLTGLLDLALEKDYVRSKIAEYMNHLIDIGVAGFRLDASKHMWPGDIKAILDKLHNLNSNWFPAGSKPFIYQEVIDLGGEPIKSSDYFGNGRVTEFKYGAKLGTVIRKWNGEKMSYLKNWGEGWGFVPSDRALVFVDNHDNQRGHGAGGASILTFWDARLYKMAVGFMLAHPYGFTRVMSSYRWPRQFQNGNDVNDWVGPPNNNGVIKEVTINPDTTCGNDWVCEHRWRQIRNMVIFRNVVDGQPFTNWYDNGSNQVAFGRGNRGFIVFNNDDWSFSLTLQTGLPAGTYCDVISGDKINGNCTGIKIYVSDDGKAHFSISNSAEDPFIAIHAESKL
Description: α-Amylase inhibition assay.

Assay [2] concerns the target human lysosomal acid-α-glucosidase (Homo sapiens, UniProt P10253). The assay is described as follows: α-Glucosidase inhibition assay.
The target in a further assay is T2, α-amylase (Homo sapiens, UniProt P04746).
T2 sequence (P04746 16-511): T1 sequence (P04746 16-511)
The assay is described as follows: Enzyme kinetic study, α-amylase. Particulars: for Inhibition mode towards α-amylase: Lineweaver-Burk plot.

Another assay deals with α-glucosidase (Homo sapiens, UniProt P10253). Description: Enzyme kinetic study, α-glucosidase. Particulars: for Inhibition mode towards α-glucosidase: Lineweaver-Burk plot.

On to `COc1cc(C[C@@H]2C[C@H]3C(=O)N(C)[C@@]4(C[C@H](C)CC[C@H]4C(C)C)N3O2)ccc1OCC(=O)N/N=C1\C(=O)Nc2c(Cl)cccc21` [5a, N'-((Z)-7-chloro-2-oxoindolin-3-ylidene)-2-(4-(((1S,2S,2′R,3a′S,5R)-2-isopropyl-5,5′-dimethyl-4′-oxotetrahydro-2′H-spiro[cyclohexane-1,6′-imidazo [1,5-b]isoxazol]-2′-yl)methyl)-2-methoxyphenoxy)acetohydrazide], for which the IC50 in assay [1] came to 194 ± 9.54 µM; in assay [2], 209 ± 10.4 µM. The “Factor by which α-amylase activity is impaired relative to 5d” value in assay [1] (5a versus 5d) stood at 6.3. Besides, the “Factor by which α-glucosidase activity is impaired relative to 5d” value in assay [2] (5a versus 5d) amounted to 3.2.

Regarding `COc1cc(C[C@@H]2C[C@H]3C(=O)N(C)[C@@]4(C[C@H](C)CC[C@H]4C(C)C)N3O2)ccc1OCC(=O)N/N=C1\C(=O)Nc2ccc(F)cc21` [5b, N'-((Z)-5-fluoro-2-oxoindolin-3-ylidene)-2-(4-(((1S,2S,2′R,3a′S,5R)-2-isopropyl-5,5′-dimethyl-4′-oxotetrahydro-2′H-spiro[cyclohexane-1,6′-imidazo [1,5-b]isoxazol]-2′-yl)methyl)-2-methoxyphenoxy)acetohydrazide], the midpoint of inhibition in assay [1], the IC50, lay at 174 ± 8.71 µM.

`COc1cc(C[C@@H]2C[C@H]3C(=O)N(C)[C@@]4(C[C@H](C)CC[C@H]4C(C)C)N3O2)ccc1OCC(=O)N/N=C1\C(=O)Nc2cc(Br)ccc21` [5c, N'-((Z)-6-bromo-2-oxoindolin-3-ylidene)-2-(4-(((1S,2S,2′R,3a′S,5R)-2-isopropyl-5,5′-dimethyl-4′-oxotetrahydro-2′H-spiro[cyclohexane-1,6′-imidazo [1,5-b]isoxazol]-2′-yl)methyl)-2-methoxyphenoxy)acetohydrazide]: the values for the concentration for half-maximal inhibition (IC50) in assay [1] and in assay [2] were 68 ± 3.4 µM and 152 ± 7.56 µM, respectively.

For `Cc1cccc(C[C@@H]2C[C@H]3C(=O)N(C)[C@@]4(C[C@H](C)CC[C@H]4C(C)C)N3O2)c1OCC(=O)N/N=C1\C(=O)Nc2c(Cl)cccc21` [5d, N'-((Z)-7-chloro-2-oxoindolin-3-ylidene)-2-(2-(((1S,2S,2′R,3a′S,5R)-2-isopropyl-5,5′-dimethyl-4′-oxotetrahydro-2′H-spiro[cyclohexane-1,6′-imidazo [1,5-b]isoxazol]-2′-yl)methyl)-6-methylphenoxy)acetohydrazide], in assay [1], the IC50 came out at 30.4 ± 1.52 µM. This compound gave a half-inhibitory concentration (IC50) in assay [2] of 65.1 ± 3.11 µM. In addition, on α-amylase, the Ki amounted to 27.5 µM and the “Inhibition mode towards α-amylase” value is reported as “competitive inhibition; also recorded: competitive inhibitors”. For the same compound, on α-glucosidase, the affinity corresponds to a Ki of 56.1 µM and the “Inhibition mode towards α-glucosidase” value is on record as “competitive inhibitors; also recorded: compete with the substrate”.

Regarding `Cc1cccc(C[C@@H]2C[C@H]3C(=O)N(C)[C@@]4(C[C@H](C)CC[C@H]4C(C)C)N3O2)c1OCC(=O)N/N=C1\C(=O)Nc2cc(Br)ccc21` [5e, N'-((Z)-6-bromo-2-oxoindolin-3-ylidene)-2-(2-(((1S,2S,2′R,3a′S,5R)-2-isopropyl-5,5′-dimethyl-4′-oxotetrahydro-2′H-spiro[cyclohexane-1,6′-imidazo [1,5-b]isoxazol]-2′-yl)methyl)-6-methylphenoxy)acetohydrazide], the concentration for half-maximal inhibition (IC50) was determined as 92.4 ± 4.05 µM in assay [1] and 172 ± 8.44 µM in assay [2].

Take `Cc1cccc(C[C@@H]2C[C@H]3C(=O)N(C)[C@@]4(C[C@H](C)CC[C@H]4C(C)C)N3O2)c1OCC(=O)N/N=C1\C(=O)Nc2ccc(F)cc21` [5f, N'-((Z)-5-fluoro-2-oxoindolin-3-ylidene)-2-(2-(((1S,2S,2′R,3a′S,5R)-2-isopropyl-5,5′-dimethyl-4′-oxotetrahydro-2′H-spiro[cyclohexane-1,6′-imidazo [1,5-b]isoxazol]-2′-yl)methyl)-6-methylphenoxy)acetohydrazide]: the concentration for half-maximal inhibition (IC50) in assay [1] was 55.7 ± 2.78 µM; in assay [2], 107 ± 5.31 µM.

`Cc1ccc2c(c1)/C(=N/NC(=O)COc1c(C)cccc1C[C@@H]1C[C@H]3C(=O)N(C)[C@@]4(C[C@H](C)CC[C@H]4C(C)C)N3O1)C(=O)N2` [5g, 2-(2-(((1S,2S,2′R,3a′S,5R)-2-isopropyl-5,5′-dimethyl-4′-oxotetrahydro-2′H-spiro[cyclohexane-1,6′-imidazo [1,5-b]isoxazol]-2′-yl)methyl)-6-methylphenoxy)-N'-((Z)-5-methyl-2-oxoindolin-3-ylidene)acetohydrazide] displayed an IC50 in assay [1] of 135 ± 6.73 µM.

Consider `Cc1cccc(C[C@@H]2C[C@H]3C(=O)N(C)[C@@]4(C[C@H](C)CC[C@H]4C(C)C)N3O2)c1OCC(=O)N/N=C1\C(=O)Nc2c(F)cccc21` [5h, N'-((Z)-7-fluoro-2-oxoindolin-3-ylidene)-2-(2-(((1S,2S,2′R,3a′S,5R)-2-isopropyl-5,5′-dimethyl-4′-oxotetrahydro-2′H-spiro[cyclohexane-1,6′-imidazo [1,5-b]isoxazol]-2′-yl)methyl)-6-methylphenoxy)acetohydrazide], for which the values for the IC50 in assay [1] and in assay [2] were 46.6 ± 2.3 µM and 85.2 ± 4.25 µM, respectively.

As to `C[C@H]1O[C@H](O[C@H]2[C@H](O)[C@@H](O)[C@@H](O[C@H]3[C@H](O)[C@@H](O)C(O)O[C@@H]3CO)O[C@@H]2CO)[C@H](O)[C@@H](O)[C@@H]1N[C@H]1C=C(CO)[C@@H](O)[C@H](O)[C@H]1O` (stereo partly shown) [Acarbose, reference compound], the “Inhibition mode towards α-amylase” value at α-amylase is recorded as “competitive inhibition; also recorded: competitive inhibitors”. Further, the “Inhibition mode towards α-glucosidase” value on α-glucosidase is on record as “competitive inhibitors; also recorded: compete with the substrate”.

(Values after PMC10877290 (Heliyon, 2024).)
